Source: PMC4776139, “Extended string-like binding of the phosphorylated HP1α N-terminal tail to the lysine 9-methylated histone H3 tail” (Scientific Reports, 2016)

Tests used:
[1] = test system: H3K9me peptide (22-mer, amino acids 1–21 of histone H3 with a C-terminal tyrosine); test: Isothermal titration calorimetry (ITC) of HP1α chromodomain constructs with H3K9me peptide; type: binding; settings: for ΔS (entropy change) / Ka / ΔH (enthalpy change) / Kd: 20 °C; for ΔS (entropy change): calculated from Kd and ΔH; for Ka / ΔH (enthalpy change): pH 6.80, one-site binding model; for Kd: 20 mM KPB (pH 6.80), 10 mM NaCl; for fold stronger binding to H3K9me than the CD alone: relative to CD (NCD^Δ1–19); for fold weaker binding to H3K9me as compared with NCD^Δ1–9: relative to NCD^Δ1–9; for times more strongly bound H3K9me than the CD: relative to CD
Description: Protein solution (40 μM) was loaded into a VP-ITC isothermal titration calorimeter (Microcal, INC.) cell (active cell volume 1.4 ml). The solution was titrated against 400 μM ligand solution via a 250 μl titration syringe. Experiments were carried out at 20 °C. The ligand solution was prepared in the same buffer as the protein (20 mM KPB (pH 6.80), 10 mM NaCl). The heat of dilution generated by the ligand was subtracted, and the binding isotherms were fitted to a one-site binding model by using Origin 7 Software (Microcal, INC.). From the values of Kd and ΔH, the thermodynamic parameters, ΔG and ΔS were calculated according to the basic thermodynamic equations;

[2] = HSQC dilution check for dimer or multimer association; type: physicochemical; settings: 10-fold diluted samples
Description: It might be possible that the differences in chemical shift observed between unmod-NCD and phos-NCD originate from different dimer or multimer associations due to their N-terminal tails.

[3] = Small angle X-ray scattering (SAXS); type: physicochemical; settings: for association state, in words: SAXS at 5, 10 and 15 mg/ml, no scattering from aggregated protein; for association state, in words / Dmax (maximum particle dimension): pH 6.8, 20 °C; for Rg (radius of gyration) / Estimated molecular weight (association state) / Dmax (maximum particle dimension): SAXS; for Rg (radius of gyration): Guinier plot; for Estimated molecular weight (association state): from I(0)/c compared to hen egg white lysozyme; for Dmax (maximum particle dimension): from P(r) function (GNOM); as to Dmax (maximum particle dimension): values in Å; as to Rg (radius of gyration): values in Å
Description: To confirm the structural differences between unmod-NCD and phos-NCD, small angle X-ray scattering (SAXS) experiments were carried out on CD, unmod-NCD, and phos-NCD. To check inter-particle interference, SAXS data were collect at three different protein concentrations, 5, 10 and 15 mg/ml (Supplementary Fig. S4). The radius of gyration Rg, and the estimated molecular weight from the forward scattering intensity I(0), of CD, unmod-NCD, and phos-NCD are summarized in Fig. 3. […] The Rg value of the CD at the three different protein concentrations was estimated as 14.0 ± 0.3, 13.8 ± 0.3 and 13.7 ± 0.2 Å, which are close to the Rg value calculated from the NMR structure of the CD (15.0 Å).
We converted the scattering profiles at 5 mg/ml to the P(r) function and the estimated maximum particle dimension, Dmax (Fig. 3). […] The Dmax of unmod-NCD (79 Å) and phos-NCD (94 Å) was larger than that of the CD (56 Å). The extended tail of the P(r) function and larger Dmax for unmod-NCD and phos-NCD is due to scattering from the N-terminal tail region in each case.
SAXS measurements were performed at 20 °C with a MicroMax007HF X-ray generator (Rigaku). A PILATUS100K detector (DECTRIS) at a distance of 561 mm from the sample was used to measure scattering intensities. Each sample solution was transferred to a quartz-window cell with a 1 mm path length. Circular averaging of the scattering intensities was carried out to obtain one-dimensional scattering data I(q) as a function of q (q = 4πsinθ/λ, where 2θ is the scattering angle and λ is the X-ray wavelength 1.5418 Å). To correct for interparticle interference, I(q) data were collected at three different protein concentrations (5, 10, and 15 mg/ml in 50 mM KPB (pH 6.8), 500 mM NaCl, and 5 mM DTT.). The total exposure times were 6 hours for 5 mg/ml, and 3 hours for both 10mg/ml and 15mg/ml. […] To estimate the molecular weight of samples, I(q) data were collected for hen egg white lysozyme (5.2 mg/ml in 50 mM KPB (pH 6.8), 500 mM NaCl). The data were processed by using the software applications embedded in the ATSAS package [ http://www.embl-hamburg.de/biosaxs/software.html]. The radius of gyration Rg and forward scattering intensity I(0) were estimated from the Guinier plot[35] of I(q) in the smaller angle region of qRg < 1.3. The distance distribution function P(r) was calculated in the program GNOM[36], where the experimental I(q) data were used in a q-range from 0.031 to 0.250 Å^−1. The maximum particle dimension Dmax was estimated from the P(r) function as the distance r for which P(r) = 0[35]. The I(q) and Rg of 20 models corresponding to the NMR structures were calculated by using the program CRYSOL[37] and averaged. The molecular weight of the sample was estimated by comparing I(0)/c (where c is the protein concentration) of the sample to that of lysozyme.

[4] = VP-ITC, protein 40 μM in cell, titrated with 400 μM H3K9me peptide, one-site binding model
[5] = 5 mg/ml, exposure 1 h x6, 50 mM KPB (pH 6.8), 500 mM NaCl, 5 mM DTT, 20 °C
[6] = 10 mg/ml, exposure 1 h x3, pH 6.8, 20 °C
[7] = 15 mg/ml, exposure 1 h x3, pH 6.8, 20 °C

## phos-NCD^Δ1–4: NCD^Δ1–4 (amino acids 5–80) with phosphorylated serine residues
[1]
  binding to H3K9me relative to un-phosphorylated NCD^Δ1–9, in words: recovered to a value similar to that of un-phosphorylated NCD^Δ1–9
  ΔS (entropy change): 1.14 cal/mol/K
  Ka: 2.61e+06 ± 236000 M⁻¹
  ΔH (enthalpy change): -8.271 ± 0.05999 kcal/mol
[1]; [4]
  Kd: 380 nM

## NCD^Δ1–9: N-terminal deletion mutant, amino acid 10–80 of HP1α
[1]
  ΔS (entropy change): 5.66 cal/mol/K
  Ka: 6.04e+06 ± 255000 M⁻¹
  ΔH (enthalpy change): -7.435 ± 0.01679 kcal/mol
  fold stronger binding to H3K9me than the CD alone: about 83 -fold
[1]; [4]
  Kd: 160 nM

## unmod-NCD: chromodomain with un-phosphorylated N-terminal tail, amino acids 1–80 of HP1α
[2]
  HSQC signal changes upon dilution: no significant signal changes were observed
[3]
  association state, in words: monomer
[3]; [5]
  Rg (radius of gyration): 17.2 ± 0.4 Å
[3]; 5 mg/ml
  Estimated molecular weight (association state): 8.8 kDa
  Dmax (maximum particle dimension): 79 Å
[3]; [6]
  Rg (radius of gyration): 17.0 ± 0.3 Å
[3]; 10 mg/ml
  Estimated molecular weight (association state): 8.5 kDa
[3]; [7]
  Rg (radius of gyration): 17.4 ± 0.3 Å
[3]; 15 mg/ml
  Estimated molecular weight (association state): 8.8 kDa
[1]
  ΔS (entropy change): 3.16 cal/mol/K
  Ka: 564000 ± 25900 M⁻¹
  ΔH (enthalpy change): -6.79 ± 0.04533 kcal/mol
  fold weaker binding to H3K9me as compared with NCD^Δ1–9: 6 -fold
[1]; [4]
  Kd: 1770 nM

## NCD^Δ1–14: acidic segment plus CD, amino acids 15–80 of HP1α
[1]
  ΔS (entropy change): 1.13 cal/mol/K
  Ka: 397000 ± 40700 M⁻¹
  ΔH (enthalpy change): -7.178 ± 0.1141 kcal/mol
  fold stronger binding to H3K9me than the CD alone: about 5 -fold
[1]; [4]
  Kd: 2520 nM

## phos-NCD: chromodomain with phosphorylated N-terminal tail, amino acids 1–80 of HP1α, co-expressed with casein kinase II
[2]
  HSQC signal changes upon dilution: no significant signal changes were observed
[3]
  association state, in words: monomer
[3]; [5]
  Rg (radius of gyration): 18.9 ± 0.4 Å
[3]; 5 mg/ml
  Estimated molecular weight (association state): 11.7 kDa
  Dmax (maximum particle dimension): 94 Å
[3]; [6]
  Rg (radius of gyration): 19.4 ± 0.4 Å
[3]; 10 mg/ml
  Estimated molecular weight (association state): 11.7 kDa
[3]; [7]
  Rg (radius of gyration): 19.8 ± 0.3 Å
[3]; 15 mg/ml
  Estimated molecular weight (association state): 11.9 kDa
[1]
  ΔS (entropy change): 2.23 cal/mol/K
  Ka: 5.87e+06 ± 521000 M⁻¹
  ΔH (enthalpy change): -8.424 ± 0.044 kcal/mol
  times more strongly bound H3K9me than the CD: about 80 times
[1]; [4]
  Kd: 170 nM
[1]; relative to unmod-NCD
  fold stronger affinity for H3K9me than unmod-NCD: approximately 10 -fold

## NCD^Δ1–4: N-terminal deletion mutant, amino acids 5–80 of HP1α
[1]
  ΔS (entropy change): 7.75 cal/mol/K
  Ka: 1.31e+06 ± 50700 M⁻¹
  ΔH (enthalpy change): -5.933 ± 0.02294 kcal/mol
  fold weaker binding to H3K9me as compared with NCD^Δ1–9: about 4 -fold
[1]; [4]
  Kd: 760 nM

## phos-NCD^Δ1–9: phosphorylated NCD^Δ1–9 form, amino acids 10–80 of HP1α
[1]; value in nM
  Kd: 40 nM
[1]
  ΔS (entropy change): 12.6 cal/mol/K
  Ka: 2.58e+07 ± 5.24e+06 M⁻¹
  ΔH (enthalpy change): -6.233 ± 0.04246 kcal/mol
  times more strongly bound H3K9me than the CD: more than 300 times
  fold stronger binding to H3K9me than the CD alone: about 330 -fold

## NCD^Δ1–19: CD domain alone, amino acids 20–80 of HP1α
[3]
  association state, in words: monomer
[3]; [5]
  Rg (radius of gyration): 14.0 ± 0.3 Å
[3]; 5 mg/ml
  Estimated molecular weight (association state): 6.6 kDa
  Dmax (maximum particle dimension): 56 Å
[3]; [6]
  Rg (radius of gyration): 13.8 ± 0.3 Å
[3]; 10 mg/ml
  Estimated molecular weight (association state): 6.0 kDa
[3]; [7]
  Rg (radius of gyration): 13.7 ± 0.2 Å
[3]; 15 mg/ml
  Estimated molecular weight (association state): 6.1 kDa
[1]
  ΔS (entropy change): -13.0 cal/mol/K
  Ka: 75000 ± 2300 M⁻¹
  ΔH (enthalpy change): -1.036E4±103.0 cal/mol
[1]; [4]
  Kd: 13300 nM
